{
  "source": "ChEMBL document CHEMBL5696443",
  "about": "(Clin Cancer Res, 2016)",
  "key": {"[1]": {"target": "Tyrosine-protein kinase CSK (Homo sapiens, UniProt P41240)", "sequence (P41240 whole entry)": "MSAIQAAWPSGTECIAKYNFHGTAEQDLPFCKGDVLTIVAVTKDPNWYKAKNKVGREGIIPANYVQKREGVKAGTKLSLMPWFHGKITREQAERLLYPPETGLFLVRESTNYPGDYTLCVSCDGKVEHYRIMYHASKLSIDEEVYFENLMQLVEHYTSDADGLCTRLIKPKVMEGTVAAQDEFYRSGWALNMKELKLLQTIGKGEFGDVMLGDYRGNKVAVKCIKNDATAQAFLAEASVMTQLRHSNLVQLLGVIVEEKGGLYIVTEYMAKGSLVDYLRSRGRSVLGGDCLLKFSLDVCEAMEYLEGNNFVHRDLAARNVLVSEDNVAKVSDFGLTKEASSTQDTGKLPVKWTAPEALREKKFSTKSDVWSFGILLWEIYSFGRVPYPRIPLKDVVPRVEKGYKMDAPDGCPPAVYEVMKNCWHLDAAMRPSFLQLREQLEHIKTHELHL", "experiment": "Inhibition of human CSK using poly (Glu, Tyr)4:1 as substrate in presence of [gamma33P]-ATP by HotSpot assay"}, "[2]": {"system": "Platelet-derived growth factor receptor alpha (Homo sapiens), P16234 [T674I]", "experiment": "Inhibition of human PDGFRalpha T674I mutant at 1 uM using poly (Glu, Tyr)4:1 as substrate in presence of [gamma33P]-ATP by HotSpot assay relative to control"}, "[3]": {"target": "Vascular endothelial growth factor receptor 1 (Homo sapiens) (UniProt P17948)", "experiment": "Inhibition of human FLT1 at 1 uM using poly (Glu, Tyr)4:1 as substrate in presence of [gamma33P]-ATP by HotSpot assay relative to control"}, "[4]": {"target": "Fibroblast growth factor receptor 3 (Homo sapiens, UniProt P22607)", "sequence (P22607 whole entry)": "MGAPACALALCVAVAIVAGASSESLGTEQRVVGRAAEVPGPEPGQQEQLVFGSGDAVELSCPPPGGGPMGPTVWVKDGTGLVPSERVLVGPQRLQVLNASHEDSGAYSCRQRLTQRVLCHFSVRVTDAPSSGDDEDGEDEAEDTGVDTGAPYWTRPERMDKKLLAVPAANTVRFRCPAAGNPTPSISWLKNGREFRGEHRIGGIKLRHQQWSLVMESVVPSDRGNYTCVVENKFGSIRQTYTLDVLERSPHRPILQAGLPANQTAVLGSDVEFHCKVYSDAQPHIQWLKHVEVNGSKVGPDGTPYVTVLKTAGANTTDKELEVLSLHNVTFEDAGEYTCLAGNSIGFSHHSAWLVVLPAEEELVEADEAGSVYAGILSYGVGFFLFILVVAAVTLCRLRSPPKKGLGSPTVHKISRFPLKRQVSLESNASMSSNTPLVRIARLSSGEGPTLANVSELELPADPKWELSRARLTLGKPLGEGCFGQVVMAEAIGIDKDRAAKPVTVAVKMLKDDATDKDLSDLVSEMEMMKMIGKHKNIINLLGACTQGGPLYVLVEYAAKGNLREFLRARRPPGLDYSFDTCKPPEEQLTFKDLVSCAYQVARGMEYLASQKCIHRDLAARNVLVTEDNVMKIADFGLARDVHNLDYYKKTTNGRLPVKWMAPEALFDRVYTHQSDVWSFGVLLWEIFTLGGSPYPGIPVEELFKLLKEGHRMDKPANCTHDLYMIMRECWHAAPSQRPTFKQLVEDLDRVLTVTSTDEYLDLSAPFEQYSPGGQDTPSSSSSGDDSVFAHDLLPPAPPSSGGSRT", "experiment": "Inhibition of human FGFR3 using poly (Glu, Tyr)4:1 as substrate in presence of [gamma33P]-ATP by HotSpot assay"}, "[5]": {"target": "PAS domain-containing serine/threonine-protein kinase (Homo sapiens) (UniProt Q96RG2)", "experiment": "Inhibition of human PASK at 1 uM using KKLNRTLSFAEPG as substrate in presence of [gamma33P]-ATP by HotSpot assay relative to control"}, "[6]": {"target": "MAP kinase-interacting serine/threonine-protein kinase 2 (Homo sapiens) (UniProt Q9HBH9)", "sequence (Q9HBH9 whole entry, looked up)": "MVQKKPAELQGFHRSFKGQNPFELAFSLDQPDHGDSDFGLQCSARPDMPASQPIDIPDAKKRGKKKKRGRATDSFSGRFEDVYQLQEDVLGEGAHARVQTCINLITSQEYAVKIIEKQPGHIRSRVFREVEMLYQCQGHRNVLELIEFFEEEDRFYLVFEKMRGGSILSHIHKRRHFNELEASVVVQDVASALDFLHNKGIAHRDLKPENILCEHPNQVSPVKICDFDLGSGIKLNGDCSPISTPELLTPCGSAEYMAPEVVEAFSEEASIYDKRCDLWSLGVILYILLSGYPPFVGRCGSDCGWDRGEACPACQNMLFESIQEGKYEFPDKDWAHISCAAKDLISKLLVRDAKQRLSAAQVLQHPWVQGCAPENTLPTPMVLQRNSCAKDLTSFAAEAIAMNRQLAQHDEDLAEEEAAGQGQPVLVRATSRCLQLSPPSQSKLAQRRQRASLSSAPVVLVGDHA", "experiment": "Inhibition of human MNK2 at 1 uM using MBP as substrate in presence of [gamma33P]-ATP by HotSpot assay relative to control"}, "[7]": {"target": "Serine/threonine-protein kinase TBK1 (Homo sapiens) (UniProt Q9UHD2)", "experiment": "Inhibition of human TBK1 at 1 uM using MBP as substrate in presence of [gamma33P]-ATP by HotSpot assay relative to control"}, "[8]": {"target": "Serine/threonine-protein kinase PAK 4 (Homo sapiens) (UniProt O96013)", "experiment": "Inhibition of human PAK4 at 1 uM using RRRLSFAEPG as substrate in presence of [gamma33P]-ATP by HotSpot assay relative to control"}, "[9]": {"target": "Mitogen-activated protein kinase kinase kinase 5 (Homo sapiens) (UniProt Q99683)", "sequence (Q99683 whole entry)": "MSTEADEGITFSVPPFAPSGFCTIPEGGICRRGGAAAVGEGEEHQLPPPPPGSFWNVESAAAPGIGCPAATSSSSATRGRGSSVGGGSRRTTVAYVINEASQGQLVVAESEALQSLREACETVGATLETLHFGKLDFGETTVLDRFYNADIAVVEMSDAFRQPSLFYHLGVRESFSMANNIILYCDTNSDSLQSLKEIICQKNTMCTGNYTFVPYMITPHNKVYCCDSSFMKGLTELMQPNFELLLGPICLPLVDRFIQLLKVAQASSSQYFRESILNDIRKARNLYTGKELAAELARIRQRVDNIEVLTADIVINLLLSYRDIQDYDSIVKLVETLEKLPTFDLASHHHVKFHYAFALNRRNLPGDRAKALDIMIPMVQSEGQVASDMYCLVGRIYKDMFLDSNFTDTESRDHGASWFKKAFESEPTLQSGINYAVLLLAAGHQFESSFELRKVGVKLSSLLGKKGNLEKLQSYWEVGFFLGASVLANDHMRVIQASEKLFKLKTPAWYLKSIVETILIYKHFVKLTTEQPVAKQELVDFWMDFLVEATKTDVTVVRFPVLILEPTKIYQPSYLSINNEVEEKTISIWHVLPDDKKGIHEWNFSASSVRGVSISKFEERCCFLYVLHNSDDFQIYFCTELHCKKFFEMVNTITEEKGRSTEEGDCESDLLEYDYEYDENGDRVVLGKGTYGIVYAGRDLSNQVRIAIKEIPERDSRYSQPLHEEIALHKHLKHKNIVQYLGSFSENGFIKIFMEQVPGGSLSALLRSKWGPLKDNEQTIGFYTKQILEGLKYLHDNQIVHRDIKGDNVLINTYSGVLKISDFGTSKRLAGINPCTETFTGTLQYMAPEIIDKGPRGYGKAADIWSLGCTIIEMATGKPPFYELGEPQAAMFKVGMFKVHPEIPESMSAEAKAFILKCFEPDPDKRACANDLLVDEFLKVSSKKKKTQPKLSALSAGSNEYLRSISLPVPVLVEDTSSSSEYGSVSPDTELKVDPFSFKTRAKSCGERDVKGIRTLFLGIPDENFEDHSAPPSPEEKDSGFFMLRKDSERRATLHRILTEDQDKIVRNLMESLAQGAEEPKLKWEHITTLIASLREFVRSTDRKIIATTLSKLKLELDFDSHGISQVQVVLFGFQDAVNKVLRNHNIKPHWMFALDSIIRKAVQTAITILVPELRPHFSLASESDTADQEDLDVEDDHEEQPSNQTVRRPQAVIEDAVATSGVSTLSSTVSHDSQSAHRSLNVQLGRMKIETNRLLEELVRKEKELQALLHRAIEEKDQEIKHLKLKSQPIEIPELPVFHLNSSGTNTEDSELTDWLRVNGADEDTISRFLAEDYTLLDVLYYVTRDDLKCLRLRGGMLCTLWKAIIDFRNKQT", "experiment": "Inhibition of human MAP3K5 at 1 uM using MBP as substrate in presence of [gamma33P]-ATP by HotSpot assay relative to control"}, "[10]": {"target": "Serine/threonine-protein kinase B-raf (Homo sapiens) (UniProt P15056)", "experiment": "Inhibition of human BRAF at 1 uM using MEK1 as substrate in presence of [gamma33P]-ATP by HotSpot assay relative to control"}, "[11]": {"target": "Protein kinase C beta type (Homo sapiens) (UniProt P05771)", "experiment": "Inhibition of human PKCb2 at 1 uM using ERMRPRKRQGSVRRRV as substrate in presence of [gamma33P]-ATP by HotSpot assay relative to control"}, "[12]": {"target": "BDNF/NT-3 growth factors receptor (Homo sapiens, UniProt Q16620)", "experiment": "Inhibition of human NTRK2 using poly (Glu, Tyr)4:1 as substrate in presence of [gamma33P]-ATP by HotSpot assay"}, "[13]": {"system": "EML4-ALK (Homo sapiens), Q9UM73+Q9HC35 [L1198F]", "conditions": "BaF3, dose 500.0 nmol/L, time 3-5 weeks"}, "[14]": {"target": "Mitogen-activated protein kinase kinase kinase 14 (Homo sapiens) (UniProt Q99558)", "sequence (Q99558 whole entry, looked up)": "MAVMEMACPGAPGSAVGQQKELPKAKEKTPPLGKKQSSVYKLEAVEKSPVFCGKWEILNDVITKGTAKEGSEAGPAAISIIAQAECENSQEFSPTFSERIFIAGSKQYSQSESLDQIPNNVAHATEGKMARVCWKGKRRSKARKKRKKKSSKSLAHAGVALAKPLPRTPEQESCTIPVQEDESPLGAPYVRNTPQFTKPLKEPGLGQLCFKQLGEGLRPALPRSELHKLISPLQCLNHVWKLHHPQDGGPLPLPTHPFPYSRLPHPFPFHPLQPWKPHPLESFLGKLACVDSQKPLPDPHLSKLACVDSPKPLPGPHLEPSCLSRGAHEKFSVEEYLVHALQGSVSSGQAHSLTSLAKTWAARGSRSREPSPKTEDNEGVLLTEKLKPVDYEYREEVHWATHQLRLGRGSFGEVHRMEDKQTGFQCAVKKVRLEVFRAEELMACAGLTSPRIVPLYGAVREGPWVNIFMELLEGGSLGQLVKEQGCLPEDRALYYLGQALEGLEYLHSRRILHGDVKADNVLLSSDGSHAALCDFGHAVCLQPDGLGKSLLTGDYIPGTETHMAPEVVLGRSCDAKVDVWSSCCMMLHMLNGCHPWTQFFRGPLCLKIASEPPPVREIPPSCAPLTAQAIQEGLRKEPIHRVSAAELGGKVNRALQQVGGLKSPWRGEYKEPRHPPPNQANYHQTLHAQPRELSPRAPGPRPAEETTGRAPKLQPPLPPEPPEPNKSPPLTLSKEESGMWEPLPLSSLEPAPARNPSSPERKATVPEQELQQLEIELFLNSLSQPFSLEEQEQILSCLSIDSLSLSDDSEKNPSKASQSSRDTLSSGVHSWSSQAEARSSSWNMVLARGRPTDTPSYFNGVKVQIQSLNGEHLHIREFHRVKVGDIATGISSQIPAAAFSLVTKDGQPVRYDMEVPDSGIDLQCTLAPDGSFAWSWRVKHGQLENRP", "experiment": "Inhibition of human MAP3K14 at 1 uM using MBP as substrate in presence of [gamma33P]-ATP by HotSpot assay relative to control"}, "[15]": {"system": "Mus musculus", "experiment": "In vivo inhibition of ALK phosphorylation in SCID Beige mouse xenografted with ALK positive human KARPAS-299 cells at 10 to 50 mg/kg, po administered once daily for 4 days and measured 24 hrs after last dose by ELISA", "format": "functional, organism-based", "conditions": "dose 10-50 mg/kg, time 5.0 day"}, "[16]": {"system": "EML4-ALK (Homo sapiens), Q9UM73+Q9HC35 [V1180L]", "conditions": "BaF3, dose 500.0 nmol/L, time 3-5 weeks"}, "[17]": {"target": "Calcium/calmodulin-dependent protein kinase type II subunit beta (Homo sapiens) (UniProt Q13554)", "experiment": "Inhibition of human CAMK2b at 1 uM using KKALRRQETVDAL as substrate in presence of [gamma33P]-ATP by HotSpot assay relative to control"}, "[18]": {"target": "Calcium/calmodulin-dependent protein kinase kinase 1 (Homo sapiens) (UniProt Q8N5S9)", "experiment": "Inhibition of human CAMKK1 at 1 uM using MBP as substrate in presence of [gamma33P]-ATP by HotSpot assay relative to control"}, "[19]": {"system": "EML4-ALK (Homo sapiens), Q9UM73+Q9HC35 [C1156Y]", "conditions": "BaF3, time 3-5 weeks"}, "[20]": {"target": "Protein kinase C theta type (Homo sapiens) (UniProt Q04759)", "experiment": "Inhibition of human PKCtheta at 1 uM using ERMRPRKRQGSVRRRV as substrate in presence of [gamma33P]-ATP by HotSpot assay relative to control"}, "[21]": {"system": "EML4-ALK (Homo sapiens), Q9UM73+Q9HC35 [UNDEFINED MUTATION]", "conditions": "BaF3, dose 500.0 nmol/L, time 3-5 weeks"}, "[22]": {"target": "Receptor-interacting serine/threonine-protein kinase 2 (Homo sapiens) (UniProt O43353)", "experiment": "Inhibition of human RIPK2 at 1 uM using MBP as substrate in presence of [gamma33P]-ATP by HotSpot assay relative to control"}, "[23]": {"target": "G protein-coupled receptor kinase 4 (Homo sapiens) (UniProt P32298)", "sequence (P32298 whole entry, looked up)": "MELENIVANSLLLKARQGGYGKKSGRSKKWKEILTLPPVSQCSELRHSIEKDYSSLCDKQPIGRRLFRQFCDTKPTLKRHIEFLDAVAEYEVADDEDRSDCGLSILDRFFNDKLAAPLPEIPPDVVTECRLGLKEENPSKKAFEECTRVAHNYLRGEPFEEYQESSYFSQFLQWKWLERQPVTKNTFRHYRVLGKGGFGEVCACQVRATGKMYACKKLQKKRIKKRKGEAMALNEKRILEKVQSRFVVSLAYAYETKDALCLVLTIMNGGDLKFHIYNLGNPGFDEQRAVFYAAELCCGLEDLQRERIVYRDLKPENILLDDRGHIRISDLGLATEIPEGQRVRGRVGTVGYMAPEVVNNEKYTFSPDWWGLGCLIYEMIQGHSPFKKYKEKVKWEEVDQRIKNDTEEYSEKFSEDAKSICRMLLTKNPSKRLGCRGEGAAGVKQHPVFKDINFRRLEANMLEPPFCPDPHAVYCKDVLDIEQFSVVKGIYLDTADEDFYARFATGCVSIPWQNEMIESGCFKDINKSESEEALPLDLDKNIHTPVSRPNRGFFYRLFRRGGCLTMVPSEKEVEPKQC", "experiment": "Inhibition of human GRK4 at 1 uM using casein as substrate in presence of [gamma33P]-ATP by HotSpot assay relative to control"}, "[24]": {"target": "Mitogen-activated protein kinase 9 (Homo sapiens) (UniProt P45984)", "sequence (P45984 whole entry, looked up)": "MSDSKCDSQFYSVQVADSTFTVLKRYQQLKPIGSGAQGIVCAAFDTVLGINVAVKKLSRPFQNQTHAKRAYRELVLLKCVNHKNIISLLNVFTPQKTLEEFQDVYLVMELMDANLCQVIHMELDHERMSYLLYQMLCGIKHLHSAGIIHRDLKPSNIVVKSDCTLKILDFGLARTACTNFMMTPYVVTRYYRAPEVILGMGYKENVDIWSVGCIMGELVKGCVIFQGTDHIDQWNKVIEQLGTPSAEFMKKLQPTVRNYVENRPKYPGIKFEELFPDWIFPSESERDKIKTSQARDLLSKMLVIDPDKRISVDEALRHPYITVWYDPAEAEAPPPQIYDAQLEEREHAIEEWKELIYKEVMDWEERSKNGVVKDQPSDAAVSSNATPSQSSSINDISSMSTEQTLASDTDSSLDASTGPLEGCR", "experiment": "Inhibition of human JNK2a2 at 1 uM using ATF2 as substrate in presence of [gamma33P]-ATP by HotSpot assay relative to control"}, "[25]": {"target": "Ephrin type-A receptor 4 (Homo sapiens) (UniProt P54764)", "experiment": "Inhibition of human EPHA4 at 1 uM using poly (Glu, Tyr)4:1 as substrate in presence of [gamma33P]-ATP by HotSpot assay relative to control"}, "[26]": {"target": "High affinity nerve growth factor receptor (Homo sapiens) (UniProt P04629)", "experiment": "Inhibition of human NTRK1 at 1 uM using poly (Glu, Tyr)4:1 as substrate in presence of [gamma33P]-ATP by HotSpot assay relative to control"}, "[27]": {"target": "Non-receptor tyrosine-protein kinase TYK2 (Homo sapiens) (UniProt P29597)", "experiment": "Inhibition of human TYK2 at 1 uM using KKSRGDYMTMQIG as substrate in presence of [gamma33P]-ATP by HotSpot assay relative to control"}, "[28]": {"species_on_record": "Homo sapiens", "experiment": "Inhibition of human PKA at 1 uM using LCGRTGRRNSI as substrate in presence of [gamma33P]-ATP by HotSpot assay relative to control"}},
  "note": "Active and inactive are the calls of the source. The rule behind the calls is not given here.",
  "data": [
    {"smiles": "COc1cc(N2CCC(N3CCN(C)CC3)CC2)ccc1Nc1ncc(Cl)c(Nc2ccccc2P(C)(C)=O)n1", "note": "[BRIGATINIB]", "values": [
      {"measurement": "IC50", "setting": "[1]", "value": 329, "unit": "nM"},
      {"measurement": "inhibition", "setting": "[2]", "value": "< 90", "unit": "%"},
      {"measurement": "inhibition", "setting": "[3]", "value": "< 90", "unit": "%"},
      {"measurement": "IC50", "setting": "[4]", "value": 358, "unit": "nM"},
      {"measurement": "inhibition", "setting": "[5]", "value": "< 90", "unit": "%"},
      {"measurement": "inhibition", "setting": "[6]", "value": "< 90", "unit": "%"},
      {"measurement": "inhibition", "setting": "[7]", "value": "< 90", "unit": "%"},
      {"measurement": "inhibition", "setting": "[8]", "value": "< 90", "unit": "%"},
      {"measurement": "inhibition", "setting": "[9]", "value": "< 90", "unit": "%"},
      {"measurement": "inhibition", "setting": "[10]", "value": "< 90", "unit": "%"},
      {"measurement": "inhibition", "setting": "[11]", "value": "< 90", "unit": "%"},
      {"measurement": "IC50", "setting": "[12]", "value": "> 1000", "unit": "nM"},
      {"measurement": "inhibition", "setting": "[13]", "value": "Active"},
      {"measurement": "inhibition", "setting": "[14]", "value": "< 90", "unit": "%"},
      {"measurement": "Activity", "setting": "[15]", "value": "Active"},
      {"measurement": "inhibition", "setting": "[16]", "value": "Active"},
      {"measurement": "inhibition", "setting": "[17]", "value": "< 90", "unit": "%"},
      {"measurement": "inhibition", "setting": "[18]", "value": "< 90", "unit": "%"},
      {"measurement": "IC90", "setting": "[19]", "value": 129, "unit": "nM"},
      {"measurement": "inhibition", "setting": "[20]", "value": "< 90", "unit": "%"},
      {"measurement": "inhibition", "setting": "[21]", "value": "Active"},
      {"measurement": "inhibition", "setting": "[22]", "value": "< 90", "unit": "%"},
      {"measurement": "inhibition", "setting": "[23]", "value": "< 90", "unit": "%"},
      {"measurement": "inhibition", "setting": "[24]", "value": "< 90", "unit": "%"},
      {"measurement": "inhibition", "setting": "[25]", "value": "< 90", "unit": "%"},
      {"measurement": "inhibition", "setting": "[26]", "value": "< 90", "unit": "%"},
      {"measurement": "inhibition", "setting": "[27]", "value": "< 90", "unit": "%"},
      {"measurement": "inhibition", "setting": "[28]", "value": "< 90", "unit": "%"}
    ]}
  ]
}
